Experimental findings from PMC5421785, “Citrullination only infrequently impacts peptide binding to HLA class II MHC” (PLoS ONE, 2017) are described below.

As usually defined, the IC50 is the concentration that inhibits the measured activity by half.

Read-outs that look alike come from different tables or passages of the source. Square brackets hold non-standard residues; d marks the D form. Ends that are not written are not given here. Peptide text beside a SMILES is read from it. Cit = NC(=O)NCCC[C@H](N)C(=O)O

The target of one experiment is T1, HLA-DRB1*04:01 (Homo sapiens, UniProt P01903+P01911, A100K/A169T/F76Y/I96L/K127E/L162R/M171V/N62H/P40V/Q125Y/R42H/S133A/S149N/S66Y/V115G/V209L/W38E).
T1 construct: EBV transformed homozygous cell lines were used as sources of MHC molecules; endogenous in cells; host or cells: EBV transformed homozygous cell lines
Put plainly: HLA class II peptide binding, inhibition of radiolabeled peptide binding to purified MHC.

For another experiment, the target named is T2, HLA-DRB1*01:01 (Homo sapiens, UniProt P01903+P01911, A100R/D57E/F55L/F60I/F76Y/I96L/L162R/M171V/P40L/Q125E/R42F/V115G/Y59C).
T2 construct: EBV transformed homozygous cell lines were used as sources of MHC molecules; endogenous in cells; host or cells: EBV transformed homozygous cell lines
The experiment is described as above.

Setting [1] is: citrullinated 15-mer (X), purified MHC, inhibition of radiolabeled peptide binding, dash = IC50 >40,000 nM, read-out: DRB1*04:01 binding capacity, Cit peptide (IC50 nM).
Setting [2] is: citrullinated 15-mer (X), purified MHC, inhibition of radiolabeled peptide binding, dash = IC50 >40,000 nM, read-out: DRB1*01:01 binding capacity, Cit peptide (IC50 nM).
Setting [3] is: citrullinated 15-mer peptide (X = citrulline), purified HLA-DRB1*04:01, read-out: DRB1*04:01 binding capacity, Cit peptide (IC50 nM).
The mark [4] stands for this setting: citrullinated 15-mer peptide (X = citrulline), purified HLA-DRB1*01:01, read-out: DRB1*01:01 binding capacity, Cit peptide (IC50 nM).
[5] abbreviates: wild-type (unmodified Arg) 15-mer peptide, purified HLA-DRB1*04:01, read-out: DRB1*04:01 binding capacity, WT peptide (IC50 nM).
Where [6] appears, read: wild-type (unmodified Arg) 15-mer peptide, purified HLA-DRB1*01:01, read-out: DRB1*01:01 binding capacity, WT peptide (IC50 nM).
[7] abbreviates: read-out: DRB1*04:01 binding capacity, WT peptide (IC50 nM).
[8] abbreviates: read-out: DRB1*01:01 binding capacity, WT peptide (IC50 nM).

Regarding `CSCC[C@H](NC(=O)[C@H](CCC(=O)O)NC(=O)[C@@H](N)CCC(=O)O)C(=O)N[C@@H](CC(C)C)C(=O)N[C@@H](CCC(N)=O)C(=O)N[C@@H](CCCNC(N)=O)C(=O)N[C@@H](CCC(=O)O)C(=O)N[C@@H](CCC(=O)O)C(=O)N[C@@H](C)C(=O)N[C@@H](CCC(=O)O)C(=O)N[C@@H](CC(N)=O)C(=O)N[C@H](C(=O)N[C@@H](CC(C)C)C(=O)N[C@@H](CCC(N)=O)C(=O)N[C@@H](CO)C(=O)O)[C@@H](C)O` [EEMLQXEEAENTLQS] (H-EEMLQ[Cit]EEAENTLQS-OH), the IC50 at HLA-DRB1*04:01 (setting [1]) is 14000 nM; on HLA-DRB1*01:01 (setting [2]), 869 nM.

Turning to `C[C@H](NC(=O)CNC(=O)[C@H](C)NC(=O)[C@@H]1CCCN1C(=O)CNC(=O)[C@@H](NC(=O)[C@H](CCCNC(=N)N)NC(=O)CNC(=O)[C@H](CCCNC(=N)N)NC(=O)[C@@H](N)CCC(=O)O)[C@@H](C)O)C(=O)N[C@@H](C)C(=O)NCC(=O)N[C@@H](C)C(=O)N[C@@H](CCCNC(N)=O)C(=O)NCC(=O)O` [ERGRTGPAGAAGAXG] (H-ERGRTGPAGAAGA[Cit]G-OH), the IC50 at HLA-DRB1*04:01 (setting [3]) is greater than 40000 nM; at HLA-DRB1*01:01 (setting [4]), 1120 nM.

Take QGPRGLPGTPGTDGP [Collagen 716 WT]: the IC50 was greater than 40000 nM on HLA-DRB1*04:01 (setting [5]) and 10400 nM on HLA-DRB1*01:01 (setting [6]).

Consider `CC(C)[C@H](NC(=O)[C@H](Cc1ccc(O)cc1)NC(=O)[C@H](CO)NC(=O)[C@H](CCCNC(=N)N)NC(=O)[C@H](CO)NC(=O)[C@H](CO)NC(=O)[C@H](CO)NC(=O)[C@@H]1CCCN1C(=O)[C@H](CCCNC(N)=O)NC(=O)[C@H](CO)NC(=O)[C@H](C)N)C(=O)N[C@H](C(=O)N[C@H](C(=O)N[C@@H](CO)C(=O)N[C@H](C(=O)O)[C@@H](C)O)[C@@H](C)O)[C@@H](C)O` [ASXPSSSRSYVTTST] (H-AS[Cit]PSSSRSYVTTST-OH), for which the figures for the IC50 at HLA-DRB1*04:01 (setting [1]) and on HLA-DRB1*01:01 (setting [2]) were 757 nM and 5560 nM, respectively.

As to `CC[C@H](C)[C@H](NC(=O)[C@H](CCC(=O)O)NC(=O)[C@@H](NC(=O)[C@H](CC(=O)O)NC(=O)[C@H](CC(N)=O)NC(=O)[C@@H](N)CO)C(C)C)C(=O)N[C@@H](CCCNC(=N)N)C(=O)N[C@@H](C)C(=O)N[C@@H](CCC(=O)O)C(=O)NCC(=O)N[C@@H](CC(N)=O)C(=O)N[C@@H](CO)C(=O)N[C@@H](CCCNC(N)=O)C(=O)N[C@@H](Cc1ccccc1)C(=O)N[C@H](C(=O)O)[C@@H](C)O` [SNDVEIRAEGNSXFT] (H-SNDVEIRAEGNS[Cit]FT-OH), the IC50 was found to be 178 nM on HLA-DRB1*04:01 (citrullinated peptide as listed (X at Cit position), read-out: DRB1*04:01 binding capacity Cit peptide (IC50 nM)) and 92 nM at HLA-DRB1*01:01 (citrullinated peptide as listed (X at Cit position), read-out: DRB1*01:01 binding capacity Cit peptide (IC50 nM)).

For `CSCC[C@H](NC(=O)[C@@H](NC(=O)CNC(=O)[C@@H](N)CC(C)C)C(C)C)C(=O)N[C@@H](CCC(N)=O)C(=O)NCC(=O)N1CCC[C@H]1C(=O)N[C@@H](CCSC)C(=O)NCC(=O)N1CCC[C@H]1C(=O)N[C@@H](CCSC)C(=O)NCC(=O)N1CCC[C@H]1C(=O)N[C@@H](CCCNC(N)=O)C(=O)NCC(=O)O` [LGVMQGPMGPMGPXG] (H-LGVMQGPMGPMGP[Cit]G-OH), the IC50 on HLA-DRB1*04:01 (setting [3]) was greater than 40000 nM; at HLA-DRB1*01:01 (setting [4]), 220 nM.

Turning to `CC[C@H](C)[C@H](NC(=O)[C@H](CCCNC(N)=O)NC(=O)[C@H](CO)NC(=O)[C@H](CCC(=O)O)NC(=O)[C@H](CCC(=O)O)NC(=O)CN)C(=O)N[C@@H](CO)C(=O)N[C@@H](CC(C)C)C(=O)N1CCC[C@H]1C(=O)N[C@@H](CC(C)C)C(=O)N1CCC[C@H]1C(=O)N[C@@H](CC(N)=O)C(=O)N[C@@H](Cc1ccccc1)C(=O)N[C@@H](CO)C(=O)N[C@@H](CO)C(=O)O` [GEESXISLPLPNFSS] (H-GEES[Cit]ISLPLPNFSS-OH), the IC50 was 8410 nM at HLA-DRB1*04:01 (setting [3]) and 646 nM on HLA-DRB1*01:01 (setting [4]).

Take `CC[C@H](C)[C@H](NC(=O)[C@H](Cc1ccc(O)cc1)NC(=O)[C@H](CC(N)=O)NC(=O)[C@H](C)NC(=O)[C@H](Cc1ccccc1)NC(=O)[C@H](CCCNC(N)=O)NC(=O)[C@H](CC(=O)O)NC(=O)[C@H](CC(N)=O)NC(=O)[C@H](CC(C)C)NC(=O)[C@H](CCC(=O)O)NC(=O)[C@H](CCC(N)=O)NC(=O)[C@H](CC(C)C)NC(=O)[C@@H](N)CCC(=O)O)C(=O)N[C@@H](CC(=O)O)C(=O)N[C@@H](CCCCN)C(=O)O` [ELQELNDXFANYIDK]: the IC50 was determined as 26700 nM at HLA-DRB1*04:01 (setting [1]) and 295 nM at HLA-DRB1*01:01 (setting [2]).

As to `CC(C)C[C@H](NC(=O)[C@H](C)NC(=O)[C@H](CC(=O)O)NC(=O)[C@@H](NC(=O)[C@H](CCC(=O)O)NC(=O)[C@H](CS)NC(=O)[C@@H](NC(=O)[C@H](CC(C)C)NC(=O)[C@H](CO)NC(=O)[C@H](CCC(N)=O)NC(=O)[C@@H](NC(=O)[C@H](CCC(N)=O)NC(=O)[C@@H](N)CCCNC(N)=O)C(C)C)[C@@H](C)O)C(C)C)C(=O)N[C@@H](CCCCN)C(=O)NCC(=O)O` [XQVQSLTCEVDALKG] (H-[Cit]QVQSLTCEVDALKG-OH), the IC50 on HLA-DRB1*04:01 (setting [3]) was 15500 nM; at HLA-DRB1*01:01 (setting [4]) it was 5110 nM.

As for PGPAGPTGKQGDRGE [Collagen 1076 WT], the IC50 on HLA-DRB1*04:01 (setting [5]) and on HLA-DRB1*01:01 (setting [6]) was greater than 40000 nM in each case.

As for GPQGARGQPGVMGFP [Collagen 591 WT], the IC50 turned out to be 2570 nM at HLA-DRB1*04:01 (setting [5]) and 44 nM at HLA-DRB1*01:01 (setting [6]).

As to `CC[C@H](C)[C@H](NC(=O)[C@H](CCCNC(N)=O)NC(=O)[C@H](CO)NC(=O)[C@H](CCC(=O)O)NC(=O)[C@H](CCC(=O)O)NC(=O)CNC(=O)[C@H](CCC(=O)O)NC(=O)[C@H](CC(C)C)NC(=O)[C@H](CC(C)C)NC(=O)[C@H](CCCCN)NC(=O)[C@@H](N)CCCNC(=N)N)C(=O)N[C@@H](CO)C(=O)N[C@@H](CC(C)C)C(=O)N1CCC[C@H]1C(=O)N[C@@H](CC(C)C)C(=O)O` [RKLLEGEESXISLPL], the IC50 was determined as 1200 nM on HLA-DRB1*04:01 (setting [3]) and 1320 nM on HLA-DRB1*01:01 (setting [4]).

`CC(C)C[C@H](NC(=O)[C@H](C)NC(=O)[C@H](C)NC(=O)[C@@H](N)[C@@H](C)O)C(=O)N[C@@H](CCCNC(=N)N)C(=O)N[C@@H](CC(=O)O)C(=O)N[C@H](C(=O)N[C@@H](CCCNC(N)=O)C(=O)N[C@@H](CCC(N)=O)C(=O)N[C@@H](CCC(N)=O)C(=O)N[C@@H](Cc1ccc(O)cc1)C(=O)N[C@@H](CCC(=O)O)C(=O)N[C@@H](CO)C(=O)N[C@H](C(=O)N[C@@H](C)C(=O)O)C(C)C)C(C)C` [TAALRDVXQQYESVA] (H-TAALRDV[Cit]QQYESVA-OH): the IC50 on HLA-DRB1*04:01 (setting [1]) worked out at 7160 nM; at HLA-DRB1*01:01 (setting [2]) it was 896 nM.

PGLRGLPGKDGETGA [Collagen 626 WT]: the IC50 was greater than 40000 nM at HLA-DRB1*04:01 (setting [5]) and 259 nM on HLA-DRB1*01:01 (setting [6]).

Take PGFPGPRGPPGPQGA [Collagen 431 WT]: the IC50 at HLA-DRB1*04:01 (setting [5]) and at HLA-DRB1*01:01 (setting [6]) was greater than 40000 nM in each case.

As to `CSCC[C@H](NC(=O)[C@H](CCC(=O)O)NC(=O)[C@H](CCC(=O)O)NC(=O)[C@@H](N)CCC(=O)O)C(=O)N[C@@H](CCCNC(=N)N)C(=O)N[C@@H](CCC(=O)O)C(=O)N[C@@H](CC(C)C)C(=O)N[C@@H](CCCNC(=N)N)C(=O)N[C@@H](CCCNC(N)=O)C(=O)N[C@@H](CCC(N)=O)C(=O)N[C@H](C(=O)N[C@@H](CC(=O)O)C(=O)N[C@@H](CCC(N)=O)C(=O)N[C@@H](CC(C)C)C(=O)N[C@H](C(=O)O)[C@@H](C)O)C(C)C` [EEEMRELRXQVDQLT] (H-EEEMRELR[Cit]QVDQLT-OH), the IC50 at HLA-DRB1*04:01 (setting [1]) is 1280 nM; at HLA-DRB1*01:01 (setting [2]), 686 nM.

`CC(C)C[C@H](NC(=O)[C@@H](N)CO)C(=O)N[C@@H](Cc1ccc(O)cc1)C(=O)N[C@@H](C)C(=O)N[C@@H](CO)C(=O)N[C@@H](CO)C(=O)N1CCC[C@H]1C(=O)NCC(=O)NCC(=O)N[C@H](C(=O)N[C@@H](Cc1ccc(O)cc1)C(=O)N[C@@H](C)C(=O)N[C@H](C(=O)N[C@@H](CCCNC(=N)N)C(=O)N[C@@H](CO)C(=O)O)[C@@H](C)O)C(C)C` [Vimentin 51 WT]: the IC50 was 6110 nM on HLA-DRB1*04:01 (setting [7]) and 75 nM on HLA-DRB1*01:01 (setting [8]).

On to EEEMRELRRQVDQLT [Vimentin 151 WT], for which the figures for the IC50 at HLA-DRB1*04:01 (setting [7]) and on HLA-DRB1*01:01 (setting [8]) were 4350 nM and 468 nM, respectively.
